PMC5097156, “Potent and selective chemical probe of hypoxic signalling downstream of HIF-α hydroxylation via VHL inhibition” (Nature Communications, 2016)

Assays:
Assay in all cases: biochemical
Parameters in all cases: Dundee MRC-PPU Express kinase screen, remaining kinase activity
Details in all cases: read-out: Mean % of remaining kinase activity (±sd)
AMPK (hum) = target: T1, AMPK (hum) (Homo sapiens, UniProt Q13131)
T1 construct: gene PRKAA1

Aurora B = target: T2, Aurora B (Homo sapiens, UniProt Q96GD4)
T2 construct: gene AURKB

BTK = BTK (Homo sapiens, UniProt Q06187)
Sequence of BTK (Q06187 whole entry): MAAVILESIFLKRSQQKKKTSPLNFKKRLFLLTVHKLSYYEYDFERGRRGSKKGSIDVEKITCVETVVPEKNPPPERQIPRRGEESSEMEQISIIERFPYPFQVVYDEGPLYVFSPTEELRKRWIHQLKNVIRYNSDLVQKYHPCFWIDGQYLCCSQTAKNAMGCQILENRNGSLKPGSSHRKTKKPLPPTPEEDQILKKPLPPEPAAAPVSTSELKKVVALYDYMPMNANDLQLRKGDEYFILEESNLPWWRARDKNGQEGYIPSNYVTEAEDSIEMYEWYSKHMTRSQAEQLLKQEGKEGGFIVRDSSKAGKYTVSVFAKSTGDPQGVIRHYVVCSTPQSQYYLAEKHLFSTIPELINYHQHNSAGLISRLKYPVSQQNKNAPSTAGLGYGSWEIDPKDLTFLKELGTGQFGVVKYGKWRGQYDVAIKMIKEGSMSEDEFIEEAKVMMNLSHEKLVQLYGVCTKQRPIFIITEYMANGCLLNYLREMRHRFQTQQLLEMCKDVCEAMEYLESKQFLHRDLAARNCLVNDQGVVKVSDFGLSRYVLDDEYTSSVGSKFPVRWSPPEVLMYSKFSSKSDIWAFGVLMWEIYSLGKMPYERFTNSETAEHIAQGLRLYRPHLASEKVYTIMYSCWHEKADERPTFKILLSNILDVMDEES

CAMKKb = target: T3, CAMKKb (Homo sapiens, UniProt Q96RR4)
T3 construct: gene CAMKK2
T3 sequence (Q96RR4 whole entry): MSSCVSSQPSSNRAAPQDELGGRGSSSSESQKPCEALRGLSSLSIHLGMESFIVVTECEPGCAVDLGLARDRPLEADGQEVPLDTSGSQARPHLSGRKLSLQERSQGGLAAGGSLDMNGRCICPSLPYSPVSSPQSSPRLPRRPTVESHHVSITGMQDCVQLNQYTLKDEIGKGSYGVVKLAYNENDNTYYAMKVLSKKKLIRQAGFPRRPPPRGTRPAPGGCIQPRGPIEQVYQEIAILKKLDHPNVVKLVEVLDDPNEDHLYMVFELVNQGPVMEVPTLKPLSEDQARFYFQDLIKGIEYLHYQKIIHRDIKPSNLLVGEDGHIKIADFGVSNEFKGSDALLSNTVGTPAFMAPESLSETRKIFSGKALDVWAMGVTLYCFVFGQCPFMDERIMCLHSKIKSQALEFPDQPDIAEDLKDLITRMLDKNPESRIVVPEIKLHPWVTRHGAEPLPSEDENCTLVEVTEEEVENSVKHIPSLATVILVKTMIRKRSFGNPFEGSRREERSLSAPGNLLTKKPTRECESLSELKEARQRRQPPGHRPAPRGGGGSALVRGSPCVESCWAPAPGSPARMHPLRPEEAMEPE

CHK2 = target: T4, CHK2 (Homo sapiens, UniProt O96017)
T4 construct: gene CHEK2
T4 sequence (O96017 whole entry): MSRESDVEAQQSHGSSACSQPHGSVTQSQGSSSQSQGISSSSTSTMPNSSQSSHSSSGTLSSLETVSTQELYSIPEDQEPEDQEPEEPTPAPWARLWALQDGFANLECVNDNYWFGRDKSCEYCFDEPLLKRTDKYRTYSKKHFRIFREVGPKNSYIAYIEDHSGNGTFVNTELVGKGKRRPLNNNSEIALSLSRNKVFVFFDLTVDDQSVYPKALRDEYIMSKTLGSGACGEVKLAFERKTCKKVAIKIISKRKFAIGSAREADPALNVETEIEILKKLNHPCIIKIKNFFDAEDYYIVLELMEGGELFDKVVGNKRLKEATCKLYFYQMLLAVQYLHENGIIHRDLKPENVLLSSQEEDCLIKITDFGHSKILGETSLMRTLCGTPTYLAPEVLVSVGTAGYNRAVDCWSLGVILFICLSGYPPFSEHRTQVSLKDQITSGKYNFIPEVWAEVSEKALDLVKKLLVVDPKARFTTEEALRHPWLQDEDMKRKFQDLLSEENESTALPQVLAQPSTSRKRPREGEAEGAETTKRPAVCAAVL

DYRK1A = DYRK1A (Homo sapiens, UniProt Q13627)
EF2K = target: T5, EF2K (Homo sapiens, UniProt O00418)
T5 construct: gene EEF2K

GSK3b = GSK3b (Homo sapiens, UniProt P49841)
Sequence of GSK3b (P49841 whole entry): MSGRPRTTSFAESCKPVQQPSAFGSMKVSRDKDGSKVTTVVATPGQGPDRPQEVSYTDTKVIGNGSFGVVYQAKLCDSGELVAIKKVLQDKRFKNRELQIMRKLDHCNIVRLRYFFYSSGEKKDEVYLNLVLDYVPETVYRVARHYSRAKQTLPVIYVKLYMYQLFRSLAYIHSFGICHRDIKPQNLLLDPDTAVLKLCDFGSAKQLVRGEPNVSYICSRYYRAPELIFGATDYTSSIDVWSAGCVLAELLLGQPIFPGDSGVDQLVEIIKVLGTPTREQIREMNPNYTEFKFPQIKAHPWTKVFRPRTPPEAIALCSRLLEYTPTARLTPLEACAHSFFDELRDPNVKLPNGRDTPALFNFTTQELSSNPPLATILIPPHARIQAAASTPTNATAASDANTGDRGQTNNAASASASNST

HER4 = target: T6, HER4 (Homo sapiens, UniProt Q15303)
T6 construct: gene ERBB4

HIPK2 = HIPK2 (Homo sapiens, UniProt Q9H2X6)
LKB1 = target: T7, LKB1 (Homo sapiens, UniProt Q15831)
T7 construct: gene STK11

MLK3 = target: T8, MLK3 (Homo sapiens, UniProt Q16584)
T8 construct: gene MAP3K11

MSK1 = target: T9, MSK1 (Homo sapiens, UniProt O75582)
T9 construct: gene RPS6KA5

MST2 = target: T10, MST2 (Homo sapiens, UniProt Q13188)
T10 construct: gene STK3

PAK4 = PAK4 (Homo sapiens, UniProt O96013)
PDK1 = target: T11, PDK1 (Homo sapiens, UniProt O15530)
T11 construct: gene PDPK1

PIM1 = PIM1 (Homo sapiens, UniProt P11309)
PKA = target: T12, PKA (Homo sapiens, UniProt P17612)
T12 construct: gene PRKACA

PKBa = target: T13, PKBa (Homo sapiens, UniProt P31749)
T13 construct: gene AKT1
T13 sequence (P31749 whole entry): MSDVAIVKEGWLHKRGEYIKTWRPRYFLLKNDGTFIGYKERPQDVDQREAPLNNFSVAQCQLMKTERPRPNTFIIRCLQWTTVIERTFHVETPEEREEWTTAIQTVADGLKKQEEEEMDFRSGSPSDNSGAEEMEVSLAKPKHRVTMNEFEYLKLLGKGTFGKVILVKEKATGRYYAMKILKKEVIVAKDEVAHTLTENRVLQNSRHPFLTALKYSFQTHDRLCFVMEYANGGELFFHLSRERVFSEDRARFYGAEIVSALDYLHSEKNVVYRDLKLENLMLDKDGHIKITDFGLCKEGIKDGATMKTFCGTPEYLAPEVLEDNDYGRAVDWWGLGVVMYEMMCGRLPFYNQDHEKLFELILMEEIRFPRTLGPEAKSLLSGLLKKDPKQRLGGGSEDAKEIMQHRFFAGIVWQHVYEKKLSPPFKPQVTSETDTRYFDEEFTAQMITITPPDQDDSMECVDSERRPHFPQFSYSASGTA

PKCa = target: T14, PKCa (Homo sapiens, UniProt P17252)
T14 construct: gene PRKCA

PLK1 = PLK1 (Homo sapiens, UniProt P53350)
Sequence of PLK1 (P53350 whole entry): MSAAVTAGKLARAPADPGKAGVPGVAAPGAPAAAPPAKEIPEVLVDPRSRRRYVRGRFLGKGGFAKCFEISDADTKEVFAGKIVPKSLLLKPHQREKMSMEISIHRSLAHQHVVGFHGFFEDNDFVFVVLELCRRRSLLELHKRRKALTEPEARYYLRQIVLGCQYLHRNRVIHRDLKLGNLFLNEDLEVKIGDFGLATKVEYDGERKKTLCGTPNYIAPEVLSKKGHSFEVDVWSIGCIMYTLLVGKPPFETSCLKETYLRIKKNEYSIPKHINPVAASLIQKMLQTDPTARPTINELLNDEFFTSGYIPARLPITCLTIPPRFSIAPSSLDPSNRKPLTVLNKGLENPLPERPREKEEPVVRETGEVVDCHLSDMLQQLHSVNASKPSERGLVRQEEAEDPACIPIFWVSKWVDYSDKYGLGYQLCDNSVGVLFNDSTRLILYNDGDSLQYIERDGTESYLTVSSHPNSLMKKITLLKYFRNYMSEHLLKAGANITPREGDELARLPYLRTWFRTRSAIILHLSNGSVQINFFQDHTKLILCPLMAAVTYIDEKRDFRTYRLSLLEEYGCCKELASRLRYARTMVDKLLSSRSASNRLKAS

ROCK 2 = target: T15, ROCK 2 (Homo sapiens, UniProt O75116)
T15 construct: gene ROCK2

RSK1 = target: T16, RSK1 (Homo sapiens, UniProt Q15418)
T16 construct: gene RPS6KA1
T16 sequence (Q15418 whole entry): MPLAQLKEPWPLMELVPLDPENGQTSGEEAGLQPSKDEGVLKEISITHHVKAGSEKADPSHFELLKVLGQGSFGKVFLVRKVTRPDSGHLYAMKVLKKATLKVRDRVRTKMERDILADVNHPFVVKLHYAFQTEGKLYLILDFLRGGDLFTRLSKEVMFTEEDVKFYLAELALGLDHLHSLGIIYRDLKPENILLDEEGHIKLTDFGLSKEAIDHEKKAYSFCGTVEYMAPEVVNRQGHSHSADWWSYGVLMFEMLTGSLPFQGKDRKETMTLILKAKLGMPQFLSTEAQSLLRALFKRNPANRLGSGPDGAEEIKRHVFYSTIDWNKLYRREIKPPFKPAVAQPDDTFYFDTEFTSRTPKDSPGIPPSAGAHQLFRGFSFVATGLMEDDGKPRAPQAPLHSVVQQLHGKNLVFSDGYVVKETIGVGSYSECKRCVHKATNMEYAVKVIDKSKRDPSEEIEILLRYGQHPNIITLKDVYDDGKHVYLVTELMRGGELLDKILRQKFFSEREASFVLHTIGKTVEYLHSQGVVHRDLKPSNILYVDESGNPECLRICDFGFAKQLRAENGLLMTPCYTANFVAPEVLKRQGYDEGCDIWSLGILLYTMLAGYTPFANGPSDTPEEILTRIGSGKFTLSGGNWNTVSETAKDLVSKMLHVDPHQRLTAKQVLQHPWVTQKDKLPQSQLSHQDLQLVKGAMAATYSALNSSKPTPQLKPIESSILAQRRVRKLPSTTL

SGK1 = SGK1 (Homo sapiens, UniProt O00141)
Sequence of SGK1 (O00141 whole entry): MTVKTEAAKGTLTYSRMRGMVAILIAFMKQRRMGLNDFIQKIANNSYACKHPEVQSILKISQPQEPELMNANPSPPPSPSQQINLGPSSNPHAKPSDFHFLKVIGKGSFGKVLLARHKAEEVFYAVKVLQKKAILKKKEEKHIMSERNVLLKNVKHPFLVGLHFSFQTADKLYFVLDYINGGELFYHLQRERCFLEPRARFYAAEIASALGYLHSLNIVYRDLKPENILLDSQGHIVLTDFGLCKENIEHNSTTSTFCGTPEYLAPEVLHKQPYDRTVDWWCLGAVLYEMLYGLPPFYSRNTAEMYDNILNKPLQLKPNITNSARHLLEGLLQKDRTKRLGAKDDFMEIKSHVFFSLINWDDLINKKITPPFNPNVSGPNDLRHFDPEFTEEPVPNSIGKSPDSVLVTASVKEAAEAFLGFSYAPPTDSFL

SRPK1 = SRPK1 (Homo sapiens, UniProt Q96SB4)
Src = Src (Homo sapiens, UniProt P12931)
TrkA = target: T17, TrkA (Homo sapiens, UniProt P04629)
T17 construct: gene NTRK1

p38a MAPK = target: T18, p38a MAPK (Homo sapiens, UniProt Q16539)
T18 construct: gene MAPK14
T18 sequence (Q16539 whole entry): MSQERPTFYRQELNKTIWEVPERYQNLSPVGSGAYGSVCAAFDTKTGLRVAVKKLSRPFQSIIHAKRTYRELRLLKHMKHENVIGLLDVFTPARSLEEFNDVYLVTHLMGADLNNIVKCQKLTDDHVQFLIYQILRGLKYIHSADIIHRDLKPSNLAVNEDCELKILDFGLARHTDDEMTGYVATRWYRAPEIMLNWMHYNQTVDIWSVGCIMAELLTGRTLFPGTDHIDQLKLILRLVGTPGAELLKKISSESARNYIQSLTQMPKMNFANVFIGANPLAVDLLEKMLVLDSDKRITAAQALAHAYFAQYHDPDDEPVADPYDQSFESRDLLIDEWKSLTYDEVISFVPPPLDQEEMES

Cc1ncsc1-c1ccc(CNC(=O)[C@@H]2C[C@@H](O)CN2C(=O)[C@@H](NC(=O)C2(C#N)CC2)C(C)(C)C)cc1 [VH298]
remaining activity at 50 µM (AMPK (hum)): 101%
remaining activity at 50 µM (Aurora B): 78%
remaining activity at 50 µM (BTK): 102%
remaining activity at 50 µM (CAMKKb): 101%
remaining activity at 50 µM (CHK2): 93%
remaining activity at 50 µM (DYRK1A): 76%
remaining activity at 50 µM (EF2K): 116%
remaining activity at 50 µM (GSK3b): 107%
remaining activity at 50 µM (HER4): 96%
remaining activity at 50 µM (HIPK2): 100%
remaining activity at 50 µM (LKB1): 105%
remaining activity at 50 µM (MLK3): 95%
remaining activity at 50 µM (MSK1): 87%
remaining activity at 50 µM (MST2): 98%
remaining activity at 50 µM (PAK4): 97%
remaining activity at 50 µM (PDK1): 110%
remaining activity at 50 µM (PIM1): 92%
remaining activity at 50 µM (PKA): 68%
remaining activity at 50 µM (PKBa): 54%
remaining activity at 50 µM (PKCa): 99%
remaining activity at 50 µM (PLK1): 100%
remaining activity at 50 µM (ROCK 2): 75%
remaining activity at 50 µM (RSK1): 94%
remaining activity at 50 µM (SGK1): 83%
remaining activity at 50 µM (SRPK1): 101%
remaining activity at 50 µM (Src): 112%
remaining activity at 50 µM (TrkA): 100%
remaining activity at 50 µM (p38a MAPK): 108%
